Data published in ChEMBL document CHEMBL1147919, “Syntheses and binding affinities of 6-nitroquipazine analogues for serotonin transporter. Part 5: 2'-Substituted 6-nitroquipazines” (Bioorg Med Chem, 2007).

Molecular target: Sodium-dependent serotonin transporter (Rattus norvegicus, UniProt P31652)
Assay: Displacement of [3H]citalopram from Sprague-Dawley rat SERT

Sequence of Sodium-dependent serotonin transporter (P31652 whole entry): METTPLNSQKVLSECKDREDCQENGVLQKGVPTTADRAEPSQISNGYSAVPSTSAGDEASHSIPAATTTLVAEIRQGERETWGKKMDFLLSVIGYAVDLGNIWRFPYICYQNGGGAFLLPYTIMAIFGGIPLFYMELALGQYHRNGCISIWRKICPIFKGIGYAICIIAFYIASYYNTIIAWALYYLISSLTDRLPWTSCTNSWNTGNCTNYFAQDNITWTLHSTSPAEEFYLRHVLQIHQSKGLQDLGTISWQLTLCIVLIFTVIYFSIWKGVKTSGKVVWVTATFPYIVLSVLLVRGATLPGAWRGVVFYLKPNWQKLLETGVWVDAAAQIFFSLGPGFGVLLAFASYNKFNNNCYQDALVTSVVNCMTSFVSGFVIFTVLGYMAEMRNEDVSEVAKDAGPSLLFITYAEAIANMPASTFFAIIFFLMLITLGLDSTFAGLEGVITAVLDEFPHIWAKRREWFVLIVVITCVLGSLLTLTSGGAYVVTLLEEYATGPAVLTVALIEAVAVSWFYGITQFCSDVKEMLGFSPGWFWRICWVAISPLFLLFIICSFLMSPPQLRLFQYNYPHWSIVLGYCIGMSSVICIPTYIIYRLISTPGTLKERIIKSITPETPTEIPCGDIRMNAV

| Ki [nM] | Structure (SMILES) |
| --- | --- |
| 15.4 | CCCCOCC1CNCCN1c1ccc2cc([N+](=O)[O-])ccc2n1 (stereo unspecified) |
| 0.68 | COCC1CNCCN1c1ccc2cc([N+](=O)[O-])ccc2n1 (stereo unspecified) |
| 0.43 | CCOCC1CNCCN1c1ccc2cc([N+](=O)[O-])ccc2n1 (stereo unspecified) |
| 0.43 | O=[N+]([O-])c1ccc2nc(N3CCNCC3CO)ccc2c1 (stereo unspecified) |
| 5.67 | CCCOCC1CNCCN1c1ccc2cc([N+](=O)[O-])ccc2n1 (stereo unspecified) |

| Structure (SMILES) | Ki [nM] |
| --- | --- |
| O=[N+]([O-])c1ccc2nc(N3CCNCC3)ccc2c1 [6-NITROQUIPAZINE] | 0.24 |
